Experiment [1] concerns Barley. Kind of experiment: Barley lodging control. The experiment is classed as in vivo. As for the experimental part:
(§1) Barley seeds were treated with paclobutrazol (alone) and with paclobutrazol in combination with gibberrelic acid at varying rates. The resulting plants were then additionally treated with foliar applications of trinexapac plant growth regulator (applied as Palisade™ 128 and Palisade™ 150) at the Feekes 6 timing. Emergence and percent lodging were measured against the check. The results are found in Tables BB and CC.

In experiment [2] the test system is Variety Florida 47 tomatoe. The experiment in a line: Water use efficiency: cumulative water used by tomato transplants. In kind it is in vivo. The settings on record: for Cumulative Water Used (ml/6 plants), projected through 6th week: Table H. As for the experimental part:
Variety Florida 47 tomatoe seeds were treated and the plants tested with respect to the cumulative amount of water used to sustain the plants from seeding through growth.
Using the data obtained from these trials, and empirical calculations, a tomato transplant business could save approximately 700 gallons of water while producing 27,000 transplants.
20 tables/greenhouse×28 flats/table×48 plants/flat×0.6 liters/6 plants×gal/3.75 1=710 gallons of water.

The next experiment relates to Colorado Potato Beetle. The experiment in a line: Insect control: Colorado Potato Beetle count on plants from treated seed. In kind it is in vivo. From the text:
Presence of Colorado Potato Beetle was studied in plants resulting from the seed treatments with paclobutrazol.

The next experiment concerns vine ripe tomatoes. Kind of experiment: Yields of vine ripe tomatoes. The experiment is classed as in vivo, tomato. From the text: Table O also illustrates the safening effect of the PGR on the seed to later foliar application of the plant activator. Without the PBZ on the seed, the yield decreases from 119 to 96.
A further experiment concerns Xanthamonas spp. The experiment in a line: Xanthamonas infection of tomato transplants. As to conditions: versus fungicidal mixture alone. In kind it is in vivo. From the text:
Disease resistance in the post-emergent plant has also been shown through use of plant growth regulators as a seed treatment. A set of tomato transplants from seed treated with paclobutrazol and a fungicidal mixture of fludioxonil and mefenoxam was inoculated with Xanthamonas spp. 18 days after transplanting. […] The antibacterial activity of the PGR-treated plants is significant at several rates of application.

Experiment [3] has as its system Barley. Kind of experiment: Barley emergence after PGR seed treatments. In kind it is in vivo. As for the experimental part: as §1

For the compound `O=C1CC(C(=O)O)CC(=O)C1=C(O)C1CC1` (stereo not shown) [Trinexapac [128] Feekes 6], the “% Lodging” value with Barley [1] (7 Jun) amounted to 7.5%; in the experiment with Barley [1] (7 Jun, listed as Trinexapac [128] Feekes 6 + 7 days), 79.2%; with Barley [1] (11 Jun), 0.5%; in the experiment with Barley [1] (11 Jun, listed as Trinexapac [128] Feekes 6 + 7 days), 17.2%; with Barley [1] (18 Jun), 0%; in the experiment on Barley [1] (18 Jun, listed as Trinexapac [128] Feekes 6 + 7 days), 1.7%. Besides, the “% Lodging” value is 8.3% in the experiment on Barley [1] (19 May) and 7.5% with Barley [1] (19 May, listed as Trinexapac [128] Feekes 6 + 7 days).

Turning to `CC(C)(C)[C@@H](O)[C@@H](Cc1ccc(Cl)cc1)n1cncn1` (racemic) [PBZ, paclobutrazol], the “Cumulative Water Used (ml/6 plants), projected through 6th week” value in experiment [2] (1-Aug) is 883 ml/6 plants; in experiment [2] (21-Jul) it was 113 ml/6 plants; in experiment [2] (22-Jul) it was 172 ml/6 plants; in experiment [2] (23-Jul), 259 ml/6 plants; in experiment [2] (25-Jul), 339 ml/6 plants; in experiment [2] (26-Jul) it was 423.17 ml/6 plants. Also, the “Cumulative Water Used (ml/6 plants), projected through 6th week” value in experiment [2] (27-Jul) is reported as 506 ml/6 plants; in experiment [2] (28-Jul), 575 ml/6 plants; in experiment [2] (29-Jul), 649 ml/6 plants; in experiment [2] (31-Jul), 790 ml/6 plants. Besides, the “water use (in words)” value in experiment [2] (during transplant production) was “decreased water use”. Moreover, the “No. Potato Beetle Adults/plant” value in the experiment on Colorado Potato Beetle is 0.8. In the experiment with vine ripe tomatoes (PBZ on the seed, later foliar plant activator), the “yield (in words)” value is reported as “substantially higher”. The “resistance against xanthamonas infection (in words)” value in the experiment on Xanthamonas spp. is “greater resistance”. In addition, the entries for the “Emergence, 8 Days after planting (no. emerged-6 ft row)” value in the experiment with Barley [3] (listed as PBZ rate (1)), in the experiment with Barley [3] (listed as PBZ rate (3)) and in the experiment with Barley [3] (listed as PBZ ratge (2)) were 68.2, 38.7 and 36.3, respectively. The “Emergence, 14 Days after planting (no. emerged-6 ft row)” value is 113.2 in the experiment on Barley [3] (listed as PBZ rate (1)), 114.5 in the experiment with Barley [3] (listed as PBZ rate (3)) and 106.3 in the experiment on Barley [3] (listed as PBZ ratge (2)). Moreover, the “% Lodging” value in the experiment with Barley [1] (7 Jun, listed as PBZ rate (1)) was 85.8%; in the experiment with Barley [1] (7 Jun, listed as PBZ rate (3)) it was 72.5%; in the experiment on Barley [1] (7 Jun, listed as PBZ ratge (2)), 68.3%; in the experiment on Barley [1] (11 Jun, listed as PBZ rate (1)), 29.2%; in the experiment on Barley [1] (11 Jun, listed as PBZ rate (3)) it was 9.2%; with Barley [1] (11 Jun, listed as PBZ ratge (2)), 16.8%. The “% Lodging” value in the experiment with Barley [1] (18 Jun, listed as PBZ rate (1)) turned out to be 31.7%; in the experiment with Barley [1] (18 Jun, listed as PBZ rate (3)), 20%; in the experiment on Barley [1] (18 Jun, listed as PBZ ratge (2)) it was 23.3%; in the experiment with Barley [1] (19 May) it was 0%.

Consider `O=C1CC(C(=O)O)CC(=O)C1=C(O)C1CC1` (stereo not shown) [Trinexapac [150] Feekes 6], for which the “% Lodging” value in the experiment with Barley [1] (7 Jun) was 0.2%; with Barley [1] (11 Jun), 0%; with Barley [1] (18 Jun) it was 0%; in the experiment on Barley [1] (19 May), 11.7%.

As for `CSC(=O)c1cccc2nnsc12` [ASM, acibenzolar-S-methyl], the “Cumulative Tomato Yields No. Fruit/Plot (12 plants)” value in the experiment on vine ripe tomatoes (29-Aug, averages of 5 programs (ASM) and 3 programs (ASM + PBZ), PBZ on seed, ASM foliar) is given as 96.

The values are drawn from US20070149401A1, “METHODS AND COMPOSITION FOR GROWTH ENGINEERING AND DISEASE CONTROL” (Syngenta Crop Protection, Inc., priority 2005, published 2007).
